The source of these data is paper PMC11170206, “A novel fatty acid mimetic with pan-PPAR partial agonist activity inhibits diet-induced obesity and metabolic dysfunction-associated steatotic liver disease” (Molecular Metabolism, 2024).

What all share (type): cell-based
For assay [1], the target named is T1, PPARα (Mus musculus, UniProt P23204).
T1 construct: gene Ppara; GAL4-mPPARα
T1 sequence (P23204 1-468): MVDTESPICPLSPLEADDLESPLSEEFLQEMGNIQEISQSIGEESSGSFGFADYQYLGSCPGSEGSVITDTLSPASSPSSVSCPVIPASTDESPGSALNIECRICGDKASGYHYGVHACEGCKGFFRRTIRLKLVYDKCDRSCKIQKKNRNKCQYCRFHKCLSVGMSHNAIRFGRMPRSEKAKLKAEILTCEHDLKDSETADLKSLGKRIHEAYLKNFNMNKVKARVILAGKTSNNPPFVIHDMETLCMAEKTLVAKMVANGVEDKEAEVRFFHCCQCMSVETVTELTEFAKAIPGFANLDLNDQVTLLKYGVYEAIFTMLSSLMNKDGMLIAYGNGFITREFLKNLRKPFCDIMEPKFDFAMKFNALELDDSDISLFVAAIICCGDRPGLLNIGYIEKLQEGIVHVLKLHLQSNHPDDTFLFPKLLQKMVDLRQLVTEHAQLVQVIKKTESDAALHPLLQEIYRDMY
Kind of assay: GAL4/UAS-luciferase reporter assay in transfected HEK293 cells, positive control agonist. For orientation: Reporter assays use an easily measured gene product as a stand-in for the process of interest.

Another assay has as its target T2, PPARδ (Mus musculus, UniProt P35396).
T2 construct: gene Ppard; GAL4-mPPARδ
T2 sequence (P35396 210-440 limits assumed): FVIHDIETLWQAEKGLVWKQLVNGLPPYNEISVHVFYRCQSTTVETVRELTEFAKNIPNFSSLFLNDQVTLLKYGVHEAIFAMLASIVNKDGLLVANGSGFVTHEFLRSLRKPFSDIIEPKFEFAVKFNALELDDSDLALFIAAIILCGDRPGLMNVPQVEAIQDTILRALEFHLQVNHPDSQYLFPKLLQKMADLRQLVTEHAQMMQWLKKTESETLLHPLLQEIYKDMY
Kind of assay: GAL4/UAS-luciferase reporter assay in transfected HEK293 cells, dose-response (partial agonist).

In the next assay the target is T3, PPARγ (Mus musculus, UniProt P37238).
T3 construct: gene Pparg; GAL4-mPPARγ
T3 sequence (P37238 1-505): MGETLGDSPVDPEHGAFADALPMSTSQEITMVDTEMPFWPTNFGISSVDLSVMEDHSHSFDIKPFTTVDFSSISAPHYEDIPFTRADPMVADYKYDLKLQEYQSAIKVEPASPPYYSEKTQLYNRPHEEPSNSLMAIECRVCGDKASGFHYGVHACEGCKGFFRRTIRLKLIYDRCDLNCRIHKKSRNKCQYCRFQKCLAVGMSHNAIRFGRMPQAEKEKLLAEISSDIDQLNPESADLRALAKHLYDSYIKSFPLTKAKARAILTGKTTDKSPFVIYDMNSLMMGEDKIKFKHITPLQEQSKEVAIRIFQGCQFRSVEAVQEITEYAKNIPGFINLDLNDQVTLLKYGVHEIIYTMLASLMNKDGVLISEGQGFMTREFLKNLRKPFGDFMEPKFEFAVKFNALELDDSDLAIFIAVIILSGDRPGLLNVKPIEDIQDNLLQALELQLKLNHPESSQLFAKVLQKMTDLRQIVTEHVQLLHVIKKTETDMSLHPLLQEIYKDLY
Described as above.

Assay [2] addresses T1, PPARα. The assay is described as above.

Each structure is given as a SMILES string.

Take `Cc1cccc(Nc2cc(Cl)nc(SCC(=O)O)n2)c1C` [WY14643]: at PPARα [1], the “GAL4/UAS-luciferase reporter assay in transfected HEK293 cells, positive control” value was “full dose–response curve comparing LDT409 against positive controls for each mouse PPAR (WY, PPARα agonist;”.

By EC50 is commonly meant the midpoint of the concentration-response curve. A high value points to a need for much substance. In the case of `CCCCCCCCCCCCCCCc1cccc(OC(C)(C)C(=O)O)c1` [LDT409], the values for the concentration for a half-maximal effect (EC50) on PPARδ, on PPARγ and at PPARα [2] were 1000 nM, 100 nM and 100 nM, respectively.
